Measurements reported in EP0462935B1, “Enantiomers of 2-tetrahydrofuran derivatives, intermediates therefor and their preparation” (SANDOZ AG, priority 1990, dated 1991).
Counter-ions that a name gives are not always drawn.

Legend:
[1] = test system: Meth A fibrosarcoma; test: In vivo Meth A fibrosarcoma test; set-up: species or system mouse; settings: for Tumor volume (% of control) day 7: day 7 after tumor implantation; for Survivors (tumor free): ten CBF₁ mice
Protocol: In vivo Meth A fibrosarcoma test in the mouse:
Ten CBF₁ mice of 10-12 week age are each implanted with 7.3 x 10⁶ Meth A sarcoma cells to serve as control. A second group of ten CBF₁ mice are each implanted with 7.3 x 10⁶ Meth A sarcoma cells and on day one after implant each mouse is treated p.o. with from 5 »g to 50 »g of the test compound per day for a total of twenty or twenty-seven days. Tumor growth and survivors are assayed on days 7, 14, 21 and 28 after tumor implantation.

[2] = test system: Chronic relapsing experimental allergic encephalomyelitis; test: Chronic relapsing experimental allergic encephalomyelitis (CR-EAE test), therapeutic treatment; type: in vivo, rat; settings: 5 to 50 mg/kg/day p.o. for 16 days starting on day 16; for protective efficacy: during treatment and following discontinuation of drug; for inhibiting the appearance of mild to severe clinical symptoms: for the period of treatment
[3] = test system: Experimental allergic encephalomyelitis; test: Experimental allergic encephalomyelitis (EAE test), therapeutic treatment; type: in vivo, rat
Protocol: 2. Experimental allergic encephalomyelitis (EEA test) in the rat; therapeutic treatment:
Testing is carried out analogously to that described above with the exception that the administration of the test compound commences on day 7 after sensitization (i.e. immediately prior to appearance of disease symptoms) at dosages of from 5 to 50 mg/kg/day p.o. either daily or every second day and continuing for one week. During the testing period the animals are examined daily for symptoms of the disease and scored as in the previous test method.

[4] = test system: Delayed-type hypersensitivity; test: Delayed-type hypersensitivity (DTH test) mediated by cloned helper T cells; type: in vivo, mouse; settings: footpad swelling after 24 h
Protocol: 4. Delayed-type hypersensitivity (DTH test) in the mouse:
Suppression of DTH mediated by cloned helper T cells is tested with mice injected subcutaneously with cloned helper T cells together with the relevant antigen, namely sheep erythrocytes, in one hind footpad and with the same clone plus an unrelated antigen as control in the other footpad. The drugs are administered orally twice, first one day before and again at the time of the cell injection. After 24 h the increase in footpad thickness is measured. Footpad swelling is indicated as percentage compared with the control group (placebo).

[5] = test system: YAC-1; test: Tumor cell cytotoxicity test (TCC test); type: cell-based; settings: 72 hours
Protocol: (§1) 1. Tumor cell cytotoxicity test (TCC test):
(§2) In flat bottom microtiter plates (Nunc Roskieide, Denmark) are placed Abelson 8.1 lymphoma, YAC-1, L1210 or P815 tumor cells in Dulbecco modified Eagle's medium (DMEM) + 10 % fetal calf serum and the tumor cell-containing plates are incubated with 1, 3 and 5 »g of the test compound for a period of 6 to 72 hours. The number of viable tumor cells present in the Abelson 8.1, YAC-1, L1210 and P815 assays is determined by measuring the alkaline phosphatase in the following manner: the tumor cell plates are centrifuged (500 x g) for ten minutes and the supernatant flicked off. Without further washing, 100 »l of buffer containing 20 »l of diethanolamine, 2 »M of MgCl₂·6H₂O, 2.5 »M of p-nitrophenylphosphate and 10 mg Triton X-100 are added. The samples are incubated for 60 minutes at room temperature and the enzymatic reaction is terminated by the addition of 100 »l of 0.5 N NaOH. The absorbance is then measured at […] using a Titertek Multiskan apparatus.
(§3) At an incubation period of 72 hours the following results were obtained: […]

[6] = test system: P815; test: Tumor cell cytotoxicity test (TCC test); type: cell-based; settings: 72 hours
Protocol: as §1, §2, §3

[7] = test system: Abelson 8.1 lymphoma; test: Tumor cell cytotoxicity test (TCC test); type: cell-based; settings: 72 hours
Protocol: as §1, §2, §3

[8] = test system: L1210; test: Tumor cell cytotoxicity test (TCC test); type: cell-based; settings: 72 hours
Protocol: as §1, §2, §3

[9] = test system: Experimental allergic encephalomyelitis; test: Experimental allergic encephalomyelitis (EAE test), preventive treatment; type: in vivo, rat; settings: for Animals with total paralysis) % / Animals with total paralysis) No./total: preventive treatment, 25 mg/kg/day p.o., rat; for Animals with total paralysis) No./total: number of animals with total paralysis per total number of rats treated
Protocol: 1. Experimental allergic encephalomyelitis (EAE test) in the rat; preventive treatment:
[Levine et al., Am. J. Path. 47 (1965) 61; McFarlin et al., J. Immunol. 113 (1974) 712; Borel, Transplant. & Clin. Immunol. 13 (1981) 3]:
Male Wistar rats are injected in the hind paws with 0.1 ml of a mixture of bovine spinal cord and complete Freund's adjuvant. The test compound is administered at dosages of from 5 to 50 mg/kg/day p.o. 5 days a week, commencing on the day of sensitization and continuing for 2 weeks. Onset of EAE in control groups receiving no medication generally commences between 9 to 16 days after sensitization and is marked by symptoms of paralysis in the hind limbs and tail. Test animals are examined daily for symptoms of the disease and disease occurrence is scored according to their severity. Total paralysis means complete involvement of both hind legs and tail. The test animals are kept under observation for a total period of 50 days.

CCCCCCCCCCCCCCCCCCOC[C@@]1(COP(=O)([O-])OCC[N+](C)(C)C)CCCO1 [Compound of formula I, (R)-2-[(2-Octadecyloxymethyltetrahydrofuran-2-ylmethoxy)-hydroxyphosphinyloxy]-N,N,N-trimethylethanaminium hydroxide inner salt-4-oxide]
Tumor volume (% of control) day 7 ([1]; 5 »g per mouse per day p.o.): 90 % of control | Tumor volume (% of control) day 14 ([1]; 5 »g per mouse per day p.o.): 52 % of control | Tumor volume (% of control) day 21 ([1]; 5 »g per mouse per day p.o.): 21 % of control | Tumor volume (% of control) day 28 ([1]; 5 »g per mouse per day p.o.): 37 % of control | Survivors (tumor free) ([1]; 5 »g per mouse per day p.o.): 2/10 | Tumor volume (% of control) day 7 ([1]; 50 »g per mouse per day p.o.): 85 % of control | Tumor volume (% of control) day 14 ([1]; 50 »g per mouse per day p.o.): 53 % of control | Tumor volume (% of control) day 21 ([1]; 50 »g per mouse per day p.o.): 21 % of control | Tumor volume (% of control) day 28 ([1]; 50 »g per mouse per day p.o.): 32 % of control | Survivors (tumor free) ([1]; 50 »g per mouse per day p.o.): 3/10 | protective efficacy [2]: effective to fully protect all animals both during treatment and following discontinuation of drug | inhibiting the appearance of mild to severe clinical symptoms [2]: effective | appearance of EAE disease symptoms ([3]; 5 to 50 mg/kg/day p.o. from day 7 for one week, versus placebo control groups): substantial reduction of appearance of EAE disease symptoms | Suppression of DTH (%) ([4]; 2 x 40 mg/kg orally): 73% | Suppression of DTH (%) ([4]; 2 x 80 mg/kg orally): 88% | Inhibition with tumor cells (%) YAC-1 ([5]; 1 »g/ml): 8% | Inhibition with tumor cells (%) YAC-1 ([5]; 3 »g/ml): 86% | Inhibition with tumor cells (%) YAC-1 ([5]; 5 »g/ml): 96% | Inhibition with tumor cells (%) P815 ([6]; 1 »g/ml): 32% | Inhibition with tumor cells (%) P815 ([6]; 3 »g/ml): 80% | Inhibition with tumor cells (%) P815 ([6]; 5 »g/ml): 97% | Inhibition with tumor cells (%) Abelson 8.1 ([7]; 1 »g/ml): 29% | Inhibition with tumor cells (%) Abelson 8.1 ([7]; 3 »g/ml): 93% | Inhibition with tumor cells (%) Abelson 8.1 ([7]; 5 »g/ml): 95% | Inhibition with tumor cells (%) L1210 ([8]; 1 »g/ml): 16% | Inhibition with tumor cells (%) L1210 ([8]; 3 »g/ml): 76% | Inhibition with tumor cells (%) L1210 ([8]; 5 »g/ml): 87% | occurrence of clinical symptoms ([9]; 5 to 50 mg/kg/day p.o. 5 days a week for 2 weeks, versus placebo control groups): substantial reduction of occurrence of clinical symptoms | Animals with total paralysis) % [9]: 36% | Animals with total paralysis) No./total [9]: 5/14

CCCCCCCCCCCCCCCCCCOCC1(COP(=O)([O-])OCC[N+](C)(C)C)CCCO1 (racemic) [compound of Example 5 of USP 4'673'672]
inhibiting the appearance of mild to severe clinical symptoms [2]: effective

CCCCCCCCCCCCCCCCCCOCC1(COP(=O)([O-])OCC[N+](C)(C)C)CCCO1 (racemic) [Example 5 of USP 4'673'672, reference compound]
Tumor volume (% of control) day 7 ([1]; 5 »g per mouse per day p.o.): 82 % of control | Tumor volume (% of control) day 14 ([1]; 5 »g per mouse per day p.o.): 47 % of control | Tumor volume (% of control) day 21 ([1]; 5 »g per mouse per day p.o.): 20 % of control | Tumor volume (% of control) day 28 ([1]; 5 »g per mouse per day p.o.): 32 % of control | Survivors (tumor free) ([1]; 5 »g per mouse per day p.o.): 3/10 | Tumor volume (% of control) day 7 ([1]; 50 »g per mouse per day p.o.): 76 % of control | Tumor volume (% of control) day 14 ([1]; 50 »g per mouse per day p.o.): 38 % of control | Tumor volume (% of control) day 21 ([1]; 50 »g per mouse per day p.o.): 14 % of control | Tumor volume (% of control) day 28 ([1]; 50 »g per mouse per day p.o.): 21 % of control | Survivors (tumor free) ([1]; 50 »g per mouse per day p.o.): 6/10 | Animals with EAE) % ([3]; therapeutic treatment from day 7, 25 mg/kg/day p.o., rat): 29% | Animals with EAE) No./total ([3]; therapeutic treatment from day 7, 25 mg/kg/day p.o., rat, number of animals with symptoms of disease per total number of rats treated): 2/7 | Suppression of DTH (%) ([4]; 2 x 40 mg/kg orally): 31% | Suppression of DTH (%) ([4]; 2 x 80 mg/kg orally): 88% | Inhibition with tumor cells (%) YAC-1 ([5]; 1 »g/ml): 19% | Inhibition with tumor cells (%) YAC-1 ([5]; 3 »g/ml): 74% | Inhibition with tumor cells (%) YAC-1 ([5]; 5 »g/ml): 91% | Inhibition with tumor cells (%) P815 ([6]; 1 »g/ml): 40% | Inhibition with tumor cells (%) P815 ([6]; 3 »g/ml): 87% | Inhibition with tumor cells (%) P815 ([6]; 5 »g/ml): 95% | Inhibition with tumor cells (%) Abelson 8.1 ([7]; 1 »g/ml): 68% | Inhibition with tumor cells (%) Abelson 8.1 ([7]; 3 »g/ml): 97% | Inhibition with tumor cells (%) Abelson 8.1 ([7]; 5 »g/ml): 98% | Inhibition with tumor cells (%) L1210 ([8]; 1 »g/ml): 0% | Inhibition with tumor cells (%) L1210 ([8]; 3 »g/ml): 80% | Inhibition with tumor cells (%) L1210 ([8]; 5 »g/ml): 91% | Animals with total paralysis) % [9]: 43% | Animals with total paralysis) No./total [9]: 3/7

CCCCCCCCCCCCCCCCCCOC[C@]1(COP(=O)([O-])OCC[N+](C)(C)C)CCCO1 [Enantiomer of the compound of formula I, (S)-2-[(2-Octadecyloxymethyltetrahydrofuran-2-ylmethoxy)-hydroxyphosphinyloxy)-N,N,N-trimethylethanaminium hydroxide inner salt-4-oxide]
Tumor volume (% of control) day 7 ([1]; 5 »g per mouse per day p.o.): 66 % of control | Tumor volume (% of control) day 14 ([1]; 5 »g per mouse per day p.o.): 19 % of control | Tumor volume (% of control) day 21 ([1]; 5 »g per mouse per day p.o.): 6 % of control | Tumor volume (% of control) day 28 ([1]; 5 »g per mouse per day p.o.): 11 % of control | Survivors (tumor free) ([1]; 5 »g per mouse per day p.o.): 8/10 | Survivors (tumor free) ([1]; 5 »g per mouse per day p.o., listed as (S)-isomer): 8 out of 10 | Tumor volume (% of control) day 7 ([1]; 50 »g per mouse per day p.o.): 70 % of control | Tumor volume (% of control) day 14 ([1]; 50 »g per mouse per day p.o.): 28 % of control | Tumor volume (% of control) day 21 ([1]; 50 »g per mouse per day p.o.): 8 % of control | Tumor volume (% of control) day 28 ([1]; 50 »g per mouse per day p.o.): 13 % of control | Survivors (tumor free) ([1]; 50 »g per mouse per day p.o.): 8/10 | protective efficacy [2]: much less effective protective efficacy during treatment | Suppression of DTH (%) ([4]; 2 x 40 mg/kg orally): 16% | Suppression of DTH (%) ([4]; 2 x 80 mg/kg orally): 40% | Inhibition with tumor cells (%) YAC-1 ([5]; 1 »g/ml): 40% | Inhibition with tumor cells (%) YAC-1 ([5]; 3 »g/ml): 78% | Inhibition with tumor cells (%) YAC-1 ([5]; 5 »g/ml): 91% | Inhibition with tumor cells (%) P815 ([6]; 1 »g/ml): 84% | Inhibition with tumor cells (%) P815 ([6]; 3 »g/ml): 93% | Inhibition with tumor cells (%) P815 ([6]; 5 »g/ml): 97% | Inhibition with tumor cells (%) Abelson 8.1 ([7]; 1 »g/ml): 91% | Inhibition with tumor cells (%) Abelson 8.1 ([7]; 3 »g/ml): 98% | Inhibition with tumor cells (%) Abelson 8.1 ([7]; 5 »g/ml): 98% | Inhibition with tumor cells (%) L1210 ([8]; 1 »g/ml): 45% | Inhibition with tumor cells (%) L1210 ([8]; 3 »g/ml): 92% | Inhibition with tumor cells (%) L1210 ([8]; 5 »g/ml): 97% | Animals with total paralysis) % [9]: 86% | Animals with total paralysis) No./total [9]: 12/14
